Laboratory results reported in ChEMBL document CHEMBL1156829 (Proc Natl Acad Sci U S A, 2008).

Columns and labels:
Plasmodium falciparum [1] = experiment: NOVARTIS: Inhibition of Plasmodium falciparum 3D7 (drug-susceptible) proliferation in erythrocyte-based infection assay; format: functional, organism-based; conditions: Plasmodium falciparum, 3D7
Plasmodium falciparum [2] = experiment: NOVARTIS: Inhibition of Plasmodium falciparum W2 (drug-resistant) proliferation in erythrocyte-based infection assay; format: functional, organism-based; conditions: Plasmodium falciparum, W2; read-out: EC50
[3] = NOVARTIS: Cytotoxicity against human hepatocellular carcinoma cell line (Huh7); format: toxicity, cell-based, Huh-7; conditions: Huh7 cells (hepatocellular carcinoma cell line)

| SMILES | EC50 (Plasmodium falciparum [1]) [µM] | EC50 (Plasmodium falciparum [2]) [µM] | CC50 [3] [µM] |
| --- | --- | --- | --- |
| COC(=O)C1=C(C)NC2=C(C(=O)CC(c3ccc(OC)c(OC)c3)C2)C1c1ccc(Br)cc1 (configuration not stated) | 0.45 | 0.181 | > 100 |
| COC(=O)c1c(NC(=O)c2ccc(S(=O)(=O)N3CCOCC3)cc2)sc2c1CCN(C(C)=O)C2 | 8.66 | 0.878 | > 100 |
| CCCCCN(C(=O)c1ccc2ccccc2c1)C(CC)c1nc2ccccc2c(=O)n1-c1ccc(Cl)cc1C (configuration not stated) | 0.961 | 0.587 | > 10 |
| CN(C)c1ccc(C2N(C)c3ccccc3N2C)cc1 | 0.913 | 0.551 | > 100 |
| CCCCCCCCC(=O)N(C)CCCNc1ccnc2cc(Cl)ccc12 | 0.321 | 0.196 | > 10.7 |
| CCCOC(=O)C1=C(C)NC2=C(C(=O)CC(c3ccc(OC)c(OC)c3)C2)C1c1cccc(Br)c1 (configuration not stated) | 0.322 | 0.0744 | 21.6 |
| CNC1=C(N(C(C)=O)c2ccc(Br)cc2)C(=O)c2ccccc2C1=O | 0.162 | 0.156 | > 10 |
| Oc1ccc2cc(-c3nc4ccccc4[nH]3)c3nc4ccccc4n3c2c1 | > 1.05 | 0.97 | > 10 |
| O=C(C1CC1)N1CCc2cc(Br)cc(S(=O)(=O)N3CCCC3)c21 | 0.929 | 1.12 | > 100 |
| O=C(Cc1cccs1)N1CCC(n2c(Cc3ccc(F)cc3)nc3cccnc32)CC1 | > 12.5 | 0.827 | > 100 |
| c1ccc2cc3c(NCCCN4CCOCC4)ccnc3cc2c1 | 0.0443 | 0.0835 | 0.598 |
| COc1ccc(C(OCCS(=O)(=O)CCO)(c2ccccc2)c2ccc(OC)cc2)cc1 | 0.0703 | 0.0489 | 51.6 |
| CCCCc1nc(CN2CCC3(CC2)C(=O)N(CCc2ccccc2)C(=O)N3C)c[nH]1 | > 12 | 4.38 | > 100 |
| COc1ccccc1CN1CCc2nc(-c3cnccn3)sc2C1 | 9.23 | 4.44 | 23 |
| COc1ccccc1NC(=O)N(Cc1ccccc1)C(C)c1nc2ccccc2c(=O)n1-c1cc(C)ccc1OC (configuration not stated) | 0.344 | < 0.0156 | > 10 |
| COc1cccc(C(=O)N(CCCC(C)Nc2cc(OC)cc3cccnc23)Cc2ccc(OC)c(OC)c2)c1 (configuration not stated) | 1.48 | 0.513 | > 4.01 |
| COc1ccc(Cl)cc1-n1c(-c2cccnc2)n[nH]c1=S | 1.87 | > 1.25 | > 10 |
| COc1ccc(-c2csc3ncn(N)c(=O)c23)cc1 | > 1.25 | > 1.01 | > 10 |
| COc1ccc(N)cc1NC(=O)c1ccc(Cl)cc1Cl | > 0.89 | 0.0879 | 6.99 |
| Nc1ccc(-c2nc3cc(-c4ccc5[nH]c(-c6ccc(N)cc6)nc5c4)ccc3[nH]2)cc1 | 0.579 | 0.234 | > 10 |
| CCCC(=O)Oc1ccccc1-c1nc2cc(C)ccn2c1NC(C)(C)CC(C)(C)C | 3.55 | 1.89 | > 100 |
| N#Cc1ccc(N2CCCN(C(=S)NC3CCCC3)CC2)nc1 | 0.65 | 0.33 | > 100 |
| COc1cccc(CN2CCN(C3CCCC(C)C3)CC2)c1OC (configuration not stated) | > 12.5 | > 6.7 | > 100 |

| SMILES | EC50 (Plasmodium falciparum [1]) [µM] | EC50 (Plasmodium falciparum [2]) [µM] | CC50 [3] [µM] |
| --- | --- | --- | --- |
| CN(CCCNc1ccnc2cc(Cl)ccc12)C(=O)c1ccc(Cl)c(Cl)c1 | 0.0366 | 0.122 | > 8.36 |
| O=C(O)c1ccc(C=NNc2ccc([N+](=O)[O-])cc2)cc1 | > 1.16 | > 1.25 | > 10 |
| O=C(NCC1(c2ccccc2)CCCC1)C(=O)Nc1nncs1 | > 0.806 | > 0.36 | > 10 |
| O=C(NC(=CC=Cc1ccccc1)C(=O)N1CCCCC1)c1ccc([N+](=O)[O-])cc1 | 8.29 | 0.392 | > 100 |
| CC(C)CNC(=O)c1cnc(NCCCn2ccnc2)nc1NCCc1ccccc1 | 0.6 | 0.61 | > 10 |
| COc1ccc(C2=NN(C(=O)CCC(=O)O)C(c3ccccc3F)C2)cc1 (configuration not stated) | > 1.25 | 0.606 | > 10 |
| Cc1cc(C)cc(C(=O)Nc2c3c(nn2-c2cccc(C)c2C)CS(=O)(=O)C3)c1 | 0.329 | 0.358 | > 10 |
| COC(=O)[C@@H]1C[C@@H](NC(=O)c2ccc(OC)cc2OC)CN1Cc1cccc2ccccc12 | 4.69 | 1.49 | > 100 |
| CSc1ccccc1CN1CCc2nc(N3CCCCC3)sc2C1 | 0.369 | 0.0381 | > 10 |
| N#Cc1c(-c2ccccc2)cc(N2CCN(Cc3ccc(Cl)cc3)CC2)n2c1nc1ccccc12 | 1.12 | 1.71 | > 100 |
| COc1ccc(-c2csc3ncnc(Cl)c23)cc1OC | 2.32 | 0.723 | > 100 |
| COC(=O)c1c(-c2c(F)cccc2Cl)noc1/C=C/Nc1ccccc1 | 0.272 | 0.191 | > 10 |
| CC(=O)N(C1=C(N(C)C)C(=O)c2ccccc2C1=O)c1cccc(O)c1 | 0.0467 | 0.0582 | > 10 |
| CCc1ccc(NC(=O)CSc2nc(C)cc(C)c2C#N)cc1 | > 1.25 | > 0.694 | > 10 |
| CC(CCCO)Nc1ccnc2cc(Cl)ccc12 (configuration not stated) | 0.561 | 0.513 | > 10 |
| Cc1ccccc1NC(=O)N1CCN(C(=O)c2nc(-c3ccccc3)nc(C)c2C(=O)OC(C)C)CC1C (configuration not stated) | 0.135 | 0.0995 | 51.9 |
| CN(C)c1ccc(C=CC(=O)NC(=O)c2ccccc2O)cc1 | 0.118 | 0.358 | > 100 |
| O=C(Nc1ccc(Oc2cccc(Oc3ccc(NC(=O)c4ccc(Br)o4)cc3)c2)cc1)c1ccc(Br)o1 | 4.42 | 4.71 | > 100 |
| Cc1n(N)c2ccccc2[n+]1CC(=O)c1ccc([N+](=O)[O-])cc1 | 1.95 | 1.14 | > 100 |
| CC(C)CNc1nc(NCCCn2ccnc2)ncc1C(=O)NCc1ccccc1 | 0.257 | 0.443 | > 10 |
| CN(CCCNc1ccnc2cc(Cl)ccc12)C(=O)c1ccc(Cl)cc1 | 0.122 | 0.0756 | > 8.53 |
| CCOC(=O)c1cnc2c(OC)cccc2c1Nc1cc(C)c(Cl)cc1OC | 0.539 | > 1.23 | > 10 |
| CCN(CC)C(=O)c1cn(C2CCN(C(=O)CCc3cccc(OC)c3)CC2)nn1 | > 1.25 | 0.0267 | > 10 |

| SMILES | EC50 (Plasmodium falciparum [1]) [µM] | EC50 (Plasmodium falciparum [2]) [µM] | CC50 [3] [µM] |
| --- | --- | --- | --- |
| O=C(NC1CCN(CC(O)CN(Cc2ccccc2)S(=O)(=O)c2ccccc2)C1)c1ccco1 (configuration not stated) | 1.16 | 0.319 | > 10 |
| CCC(CC)C(=O)N1CCOc2c(cc(-c3csc4ccccc34)cc2OCc2ccccn2)C1 | 1.11 | 1.01 | > 10 |
| CCC(c1nc2ccccc2c(=O)n1-c1ccc(F)c(Cl)c1)N(CCc1ccccc1)C(=O)COc1ccccc1 (configuration not stated) | 1.19 | > 0.492 | > 6.28 |
| CCOc1ccc(-c2noc(-c3ccncc3)n2)cc1OCC | > 1.25 | > 0.847 | > 10 |
| O=C1NN=C(CC(=O)N2CC[C@@H](c3ccccc3)[C@H](O)C2)C2C=CC=CC12 (some centres not stated) | > 0.853 | > 1.59 | > 10 |
| O=C(O)c1cccc(N2N=C(c3ccccc3)CC2=O)c1 | > 12.5 | > 9.63 | > 100 |
| Fc1ccc(Nc2nc(NCC3CCCO3)c3ccccc3n2)cc1 (configuration not stated) | 0.214 | 0.282 | 9.53 |
| CCc1cc2c(NCCN3CCCCC3)ncnc2s1 | 1.32 | 0.466 | > 96.1 |
| Cc1ccc(CNC(=O)C2CNCC2c2ccc(C(F)(F)F)cc2)cc1 (configuration not stated) | 0.243 | 0.121 | > 10 |
| O=[N+]([O-])c1ccc(Cl)c(-c2ccc(C=NNc3nc4ccccc4[nH]3)o2)c1 | 0.946 | 0.801 | > 10 |
| Cc1ccc(-c2nc3cc(NC(=O)c4ccc([N+](=O)[O-])o4)ccc3o2)cc1Br | 6.92 | 6.49 | 74 |
| COc1cccc(C(=O)N(CCCC(C)Nc2cc(OC)cc3cccnc23)Cc2ccc(F)cc2)c1 (configuration not stated) | 0.666 | 0.154 | 3.73 |
| CCOc1ccc(CCNC(=O)Nc2ccc(F)cc2)cc1OCC | 0.751 | 0.492 | > 74.7 |
| CC(C)(C)c1ccc(C(=O)NCCCCNc2ccnc3cc(Cl)ccc23)cc1 | 0.176 | 0.23 | > 10.9 |
| CCCCCCCn1c(=N)n(CC(O)c2ccc(Cl)c(Cl)c2)c2ccccc21 (configuration not stated) | 0.204 | 0.0335 | 6.5 |
| CCOC(=O)C(C)Oc1cccc2c(=O)n(CC(=O)Nc3ccc(OC(F)(F)F)cc3)ccc12 (configuration not stated) | > 1.25 | > 1.22 | > 10 |
| CN(CCCNc1ccnc2cc(Cl)ccc12)C(=O)C1CCC1 | 0.192 | 0.093 | 4.57 |
| CC(=O)Nc1cccc(NC(=O)CSc2ccc3nnc(-c4ccc(F)cc4)n3n2)c1 | > 1.05 | > 1.25 | > 10 |
| CC1(CNCc2ccccc2O)C2CC3CC(C2)CC1C3 (configuration not stated) | 0.143 | 0.0326 | > 10 |
| COc1cc(NC(C)CCCN(Cc2ccc(OC)c(OC)c2)C(=O)Nc2cccc(Cl)c2Cl)c2ncccc2c1 (configuration not stated) | 0.691 | 0.203 | 6.29 |
| CCc1ccc(CSc2nc3cc(OC)c(OC)cc3c(=N)n2CCc2ccccc2)cc1 | 6.64 | 7.62 | 38.9 |
| COC(=O)C1=C(C)NC2=C(C(=O)CC(c3ccc(OC)cc3)C2)C1c1ccc(F)cc1 (configuration not stated) | 0.191 | 0.0547 | > 100 |
| Cc1ccccc1OCC(O)Cn1c(NC2CCCCC2)nc2c1c(=O)[nH]c(=O)n2C (configuration not stated) | > 1.7 | 0.549 | > 10 |
